Results reported in patent US11912683B1 (priority 2023, dated 2024).
In brackets after ≈: the same amount, converted by molar mass.

tested on: multidrug-resistant (MDR) strains of Mycobacterium tuberculosis; test: microbe, parasite or virus in culture; assay type: cell-based; conditions: 192 h, read-out: Anti-tubercular activity against Mycobacterium tuberculosis MDR (MIC)

Row | Compound | MIC [µg/mL]
1 | CC1=C(C(=O)N2CCCCC2)C(c2ccccc2)NC(=S)N1 (stereo not shown) [DHPM-KN1, (6-Methyl-4-phenyl-2-thioxo-1,2,3,4-tetrahydropyrimidin-5-yl)(piperidin-1-yl)methanone] | 64 (≈ 203 µM)
2 | COC(=O)C1=C(C)NC(=O)NC1c1ccc([N+](=O)[O-])cc1[N+](=O)[O-] (stereo not shown) [DHPM-KN4, Methyl 4-(2,4-dinitrophenyl)-6-methyl-2-oxo-1,2,3,4-tetrahydropyrimidine-5-carboxylate] | 64 (≈ 190 µM)
3 | CC1=C(C(=O)N2CCCCC2)C(c2ccc([N+](=O)[O-])cc2)NC(=S)N1 (stereo not shown) [DHPM-KN5, (6-Methyl-4-(4-nitrophenyl)-2-thioxo-1,2,3,4-tetrahydropyrimidin-5-yl)(piperidin-1-yl)methanone] | 32 (≈ 88.8 µM)
4 | CC1=C(C(=O)N2CCCCC2)C(c2ccc(Br)cc2)NC(=S)N1 (stereo not shown) [DHPM-KN6, (4-(4-Bromophenyl)-6-methyl-2-thioxo-1,2,3,4-tetrahydropyrimidin-5-yl)(piperidin-1-yl)methanone] | 128 (≈ 325 µM)
5 | COc1ccc(C2NC(=S)NC(C)=C2C(=O)N2CCCCC2)cc1 (stereo not shown) [DHPM-KN7, (4-(4-Methoxyphenyl)-6-methyl-2-thioxo-1,2,3,4-tetrahydropyrimidin-5-yl)(piperidin-1-yl)methanone] | 256 (≈ 741 µM)
6 | CC1=C(C(=O)N2CCCCC2)C(c2ccccc2C)NC(=S)N1 (stereo not shown) [DHPM-KN8, (6-Methyl-2-thioxo-4-(o-tolyl)-1,2,3,4-tetrahydropyrimidin-5-yl)(piperidin-1-yl)methanone] | 256 (≈ 777 µM)
7 | CC1=C(C(=O)N2CCCCC2)C(c2ccc(C(F)(F)F)cc2)NC(=S)N1 (stereo not shown) [DHPM-KN10, (6-Methyl-2-thioxo-4-(4-(trifluoromethyl)phenyl)-1,2,3,4-tetrahydropyrimidin-5-yl)(piperidin-1-yl)methanone] | 256 (≈ 668 µM)
